The assay has as its target Serine/threonine-protein kinase/endoribonuclease IRE1 (Homo sapiens, UniProt O75460). Nature of the assay: IRE-1alpha Assay: A fusion protein comprising glutathione S transferase (GST) and human IRE-1α (GST-IRE-1α) obtained from a 500 ml baculovirus-infected insect cell culture can be used to measure IRE-1α activity in vitro. Five μl of a reaction mixture comprising 1× reaction buffer (5× reaction buffer is 100 mM Hepes pH 7.5, 250 mM KOAc, 2.5 mM MgCl2), 3 mM DTT, and 0.4% polyethylene glycol water is added to each well of 384 well plates. Twenty-five nanoliters of a 1 mM test compound solution are added to test wells. Three μl of a 128 ng/ml IRE-1α preparation are added to each test well and to positive control wells (final concentration 5.82 ng/well). Negative control wells contain only reaction mixture and test compound. After spinning the plates at 1200 rpm for 30 seconds, 3 μl of an IRE-1α human mini-XBP-1 mRNA stem-loop substrate 5'-[…]-3' (SEQ ID NO:1), labeled with the fluorescent dye Cy5 at the 5' end and Black Hole Quencher 2 (BH2) at the 3' end, are added to each well of a control plate. The plates are again spun at 1200 rpm for 30 seconds. Final concentrations for the assay are: 63 nM IRE-1α substrate, 5.82 ng IRE-1α protein, and 2.5 μM test compound. The plates are covered with lids and incubated for one hour at 30° C. The plates are then transferred to an ACQUEST™ microplate reader. Data is analyzed using data analysis software, and the percent activity of IRE-1α is calculated.

Chain of Serine/threonine-protein kinase/endoribonuclease IRE1 (O75460 whole entry, the tested form may be a part): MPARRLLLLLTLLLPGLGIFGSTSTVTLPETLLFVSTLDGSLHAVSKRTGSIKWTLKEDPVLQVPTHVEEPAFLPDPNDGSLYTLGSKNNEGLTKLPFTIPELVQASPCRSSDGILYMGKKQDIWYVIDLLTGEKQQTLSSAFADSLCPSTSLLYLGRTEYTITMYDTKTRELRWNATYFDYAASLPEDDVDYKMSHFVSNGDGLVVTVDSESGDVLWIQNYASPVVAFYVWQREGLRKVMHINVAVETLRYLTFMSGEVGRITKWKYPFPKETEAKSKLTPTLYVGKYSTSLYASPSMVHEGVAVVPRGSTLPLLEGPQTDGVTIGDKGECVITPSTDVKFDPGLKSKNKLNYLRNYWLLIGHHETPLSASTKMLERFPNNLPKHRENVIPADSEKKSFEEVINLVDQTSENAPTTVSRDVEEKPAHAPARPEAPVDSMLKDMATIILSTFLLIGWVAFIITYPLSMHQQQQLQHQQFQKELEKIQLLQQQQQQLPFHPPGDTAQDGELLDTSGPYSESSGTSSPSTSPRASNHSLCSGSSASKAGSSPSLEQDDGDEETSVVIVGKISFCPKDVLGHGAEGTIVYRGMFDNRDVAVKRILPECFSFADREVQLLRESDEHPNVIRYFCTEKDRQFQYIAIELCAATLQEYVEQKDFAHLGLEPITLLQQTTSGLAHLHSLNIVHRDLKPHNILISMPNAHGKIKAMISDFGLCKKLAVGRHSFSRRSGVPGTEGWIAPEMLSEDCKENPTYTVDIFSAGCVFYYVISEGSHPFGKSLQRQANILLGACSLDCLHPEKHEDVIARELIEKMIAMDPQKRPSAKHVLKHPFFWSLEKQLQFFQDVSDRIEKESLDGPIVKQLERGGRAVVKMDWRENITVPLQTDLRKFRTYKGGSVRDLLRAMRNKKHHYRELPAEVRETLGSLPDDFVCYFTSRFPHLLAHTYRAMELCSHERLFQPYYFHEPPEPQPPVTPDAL

Turning to `Cc1c(Br)c(=O)oc2c(C=O)c(O)ccc12`, the EC50 is below 10 µM.
The same measure for `O=Cc1c(O)ccc2cc(-c3ccc(Br)cc3)c(=O)oc12`: above 10 µM; for `Cc1c(-c2ccc(C(=O)N3CCN(C)CC3)cc2)c(=O)oc2c(C=O)c(O)ccc12`: below 10 µM; for `CCN(CC)CCc1c(C)c2ccc(O)c(C=O)c2oc1=O`: above 10 µM.
The same measure for `COc1cc2c(C)c(Br)c(=O)oc2c(C=O)c1O`: below 10 µM.
Take `Cc1c(Br)c(=O)oc2c(C=O)c(O)c(F)cc12`: the EC50 is below 10 µM.
`Cc1c(-c2cccc(C(=O)N3CCOCC3)c2)c(=O)oc2c(C=O)c(O)ccc12`: the concentration giving a half-maximal response (EC50) is below 10 µM.
The same measure for `Cc1c(Cc2ccccc2)c(=O)oc2c(C=O)c(O)c(O)cc12`: above 10 µM; for `Cc1c(-c2ccc(C(=O)N3CCCC3)cc2)c(=O)oc2c(C=O)c(O)ccc12`: below 10 µM; for `Cc1c(-c2ccc(C(=O)N3CCC(C)CC3)cc2)c(=O)oc2c(C=O)c(O)ccc12`: below 10 µM.
`Cc1c(-c2cccc(C(=O)N3CCCC3)c2)c(=O)oc2c(C=O)c(O)ccc12`: the half-maximal effective concentration (EC50) is above 10 µM.
`Cc1cc(=O)oc2c(C=O)c(O)c(F)cc12`: the EC50 is below 10 µM.
The same measure for `Cc1c(-c2ccc(N3CCN(C)CC3)cc2)c(=O)oc2c(C=O)c(O)c(F)cc12`: below 10 µM; for `COc1cc2c(C)c(-c3ccc(C(=O)N4CCOCC4)cc3)c(=O)oc2c(C=O)c1O`: below 10 µM; for `Cc1nc(N2CCc3c(ccc(O)c3C=O)C2)sc1C(=O)N1CCOCC1`: above 10 µM.
The same measure for `O=Cc1c(O)ccc2nc(-c3cccc(C(=O)N4CCOCC4)c3)ccc12`: below 10 µM; for `CC1CCN(C(=O)c2ccc(-c3ccc4c(C=O)c(O)ccc4n3)cc2)CC1`: above 10 µM.
As to `O=Cc1c(O)ccc2nc(-c3ccc(C(=O)N4CCCC4)cc3)ccc12`, the EC50 is below 10 µM.
The same measure for `O=Cc1c(O)ccc2nc(N3CCC(NC(=O)CN4CCOCC4)C3)ccc12` (stereo not given): below 10 µM; for `CC(=O)NC1CCN(c2ccc3c(C=O)c(O)ccc3n2)C1` (stereo not given): below 10 µM.
Take `CN1CCN(C2CCN(c3nc4ccc(O)c(C=O)c4s3)C2)CC1` (stereo not given): the EC50 was above 10 µM.
Next, `CC(C)N1CCN(c2nc3ccc(O)c(C=O)c3s2)CC1`: above 10 µM; `CN1CCN(C(=O)c2ccc(-c3nc4ccc(O)c(C=O)c4s3)s2)CC1`: above 10 µM; `CC1CCN(C(=O)c2ccc(-c3nc4ccc(O)c(C=O)c4s3)cc2)CC1`: above 10 µM.
Next, `O=Cc1c(O)ccc2nc(-c3ccc(C(=O)O)cc3)[nH]c12`: above 10 µM.
In the case of `COC(=O)c1ccc(-c2nc3ccc(O)c(C=O)c3[nH]2)cc1`, the EC50 was above 10 µM.
Regarding `O=Cc1c(O)ccc2nc(-c3ccc(C(=O)NCCN4CCOCC4)cc3)[nH]c12`, the EC50 is above 10 µM.
Regarding `O=Cc1c(O)ccc2nc(-c3ccc(C(=O)N4CCOCC4)cc3)[nH]c12`, the EC50 was above 10 µM.
The same measure for `CN1CCN(C(=O)c2ccc(-c3nc4ccc(O)c(C=O)c4[nH]3)cc2)CC1`: above 10 µM; for `Cc1c(CCC(=O)N2CCOCC2)c(=O)oc2c(C=O)c(O)ccc12`: below 10 µM.

The values above are taken from ChEMBL document CHEMBL5725290, “IRE-1α inhibitors” (2017).
